Drawing on patent publication US20120202794A1 (priority 2011, published 2012), this text covers CC90 and EC90 for 30 compounds.

Data set [1] can be described thus: Cell cytotoxicity assay (MTS), CC90 as reported in Table 1, cell line not stated. The data set is classed as cell-based. Particulars: human, cell line not given. As to the method:
Cell cytotoxicity assays. Each compound (serially diluted from 100 μM) was added to Huh7 (2×10^3 cells/well), HepG2 (2×10^3 cells/well), BxPC3 (2×10^3 cells/well), or CEM (5×10^3 cells/well) cells and allowed to incubate for 8 days at 37° C. A medium only control was used to determine the minimum absorbance value […]. At the end of the growth period, MTS dye from the CellTiter 96 Aqueous One Solution Cell Proliferation Assay kit (Promega) was added to each well and the plate was incubated for an additional 2 hours. The absorbance at 490 nm was read with a Victor3 plate reader (Perkin Elmer) using the medium only control wells as blanks. The 90% inhibition value (CC90) was determined by comparing the absorbance in wells containing cells and test compound to untreated cell control wells.

A further data set deals with HCV Replicon 1b. Description: HCV inhibition assay, HCV replicon 1b (Clone A or ET-lunet cells; RT-PCR or luciferase reporter). Type of data set: cell-based. Particulars: Hepatitis C virus, 96 h, HCV replicon 1b; 4 days incubation; read-out: Replicon 1b potency EC90. As to the method:
HCV inhibition assay. Clone A or ET-lunet cells were seeded at a density of 1500 or 3000 cells per well in a 96-well plate, respectively. Test compounds serially diluted in culture medium without G418 were added to cells so that the final DMSO concentration was 0.5%. Plates were incubated at 37° C. in a 5% CO2 atmosphere for 4 days. Inhibition of HCV RNA replication was determined by real time PCR (RT-PCR) or by measuring the levels of luminescence expressed via the luciferase reporter gene encoded within the ET replicon. Briefly, for the RT-PCR assay, total RNA was extracted using the RNeasy-96 kit as recommended by the manufacturer (Qiagen, Valencia, Calif.), reversed transcribed into cDNA, and amplified using primer and probe mix for HCV 5′-NTR RNA and human ribosomal RNA (rRNA) in a one-step RT-PCR reaction as described previously (50). A relative quantification method was used to determine the extent of inhibition. The threshold cycle (Ct) of rRNA was subtracted from the Ct of HCV RNA (ΔCt). The average ΔCt of the DMSO cell controls was then subtracted from the ΔCt of the compound treated sample (ΔΔCt). Percent inhibition was determined by using the following equation: %=(1−(2^−ΔΔC^t))×100. For the luciferase-based replicon assay, luminescence was measured by using a Victor3 plate reader (Perkin-Elmer, Boston, Mass.) following the addition of Bright-Glo reagent as recommended by the manufacturer (Promega, Madison, Wis.). Percent inhibition of HCV replication was determined by comparing the change in luminescence of the drug treated wells versus the DMSO cell controls. EC50 and EC90 values, the concentrations at which 50% and 90% inhibition were achieved, were determined using the GraphPad Prism software (San Diego, Calif.).

Where only a bound is given, the exact number is not on record here.

Compound `CC(C)C[C@H]1C(=O)N[C@@H](c2ccsc2)CN1C(=O)/C=C/c1ccc(F)cc1F` [Compound 451, (3S,6S)-4-((E)-3-(2,4-difluorophenyl)acryloyl)-3-isobutyl-6-(thiophen-3-yl)piperazin-2-one] registered a CC90 at 8 days in data set [1] (MTS assay, 8 days incubation) greater than 10 µM. Further, the EC90 in the data set with HCV Replicon 1b is 0.125 µM.

In data set [1], `CC(C)C[C@H]1C(=O)N[C@@H](C(C)C)CN1C(=O)c1cc(-c2ccc(F)c(F)c2)on1` [Compound 187] returned a CC90 at 8 days greater than 10 µM. In addition, the concentration for an effect of 90% (EC90) in the data set on HCV Replicon 1b stood at 0.62 µM.

As for `CC(C)C[C@H]1CN(Cc2cc(-c3ccc(Cl)cc3)on2)[C@@H](CC(C)C)C(=O)N1` [Compound 197], in data set [1], the CC90 at 8 days is greater than 10 µM. Also, the EC90 in the data set on HCV Replicon 1b was 0.24 µM.

Take `C=CC[C@H]1C(=O)N[C@@H](CCC)CN1C(=O)c1cc(-c2ccc(F)cc2)on1` [Compound 409, (3S,6S)-3-allyl-4-(5-(4-fluorophenyl)isoxazole-3-carbonyl)-6-propylpiperazin-2-one]: in data set [1] (MTS assay, 8 days incubation), the CC90 at 8 days is greater than 10 µM. Also, the EC90 with HCV Replicon 1b stood at 1.88 µM.

In the case of `CC(C)C[C@H]1C(=O)N[C@@H](C2CCOCC2)CN1C(=O)[C@@H]1C[C@H]1c1ccc(F)cc1` [Compound 476, (3S,6S)-4-((1R,2R)-2-(4-fluoro-phenyl)cyclopropanecarbonyl)-3-isobutyl-6-(tetrahydro-2H-pyran-4-yl)piperazin-2-one], the CC90 at 8 days in data set [1] (MTS assay, 8 days incubation) was greater than 10 µM. Further, in the data set on HCV Replicon 1b, the 90% effect concentration (EC90) was 0.23 µM.

As for `CNC(=O)[C@H]1CN(C(=O)c2cc(-c3ccc(F)cc3)on2)[C@@H](CC(C)C)C(=O)N1` [Compound 508, (2R,5S)-4-(5-(4-fluorophenyl)isoxazole-3-carbonyl)-5-isobutyl-N-methyl-6-oxopiperazine-2-carboxamide], in data set [1] (MTS assay, 8 days incubation), the CC90 at 8 days is greater than 10 µM. Further, in the data set with HCV Replicon 1b, the EC90 was greater than 10 µM.

`CC(C)C[C@H]1C(=O)N[C@@H](C2CCCCC2)CN1C(=O)c1cc(-c2ccc(F)cc2)on1` [Compound 162] came in with a CC90 at 8 days in data set [1] greater than 10 µM. Further, the 90% effect concentration (EC90) in the data set on HCV Replicon 1b is 1.8 µM.

`CC(C)C[C@H]1CN(C(=O)c2cc(-c3ccccc3)on2)[C@@H](CC(C)C)C(=O)N1` [Compound 108]: the CC90 at 8 days in data set [1] was greater than 10 µM. Besides, the EC90 in the data set with HCV Replicon 1b stood at 0.52 µM.

`CC(C)C[C@H]1CN(C(=O)Cc2cc(-c3ccc(F)cc3)on2)[C@@H](CC(C)C)C(=O)N1` [Compound 278, (3S,6S)-4-(2-(5-(4-fluorophenyl)isoxazol-3-yl)acetyl)-3,6-diisobutylpiperazin-2-one]: the CC90 at 8 days in data set [1] (MTS assay, 8 days incubation) is greater than 10 µM. The EC90 in the data set on HCV Replicon 1b was 7.89 µM.

On to `CC(C)C[C@H]1C(=O)N[C@@H](C2CCC2)CN1C(=O)c1noc(-c2ccc(F)cc2)n1` [Compound 467, (3S,6S)-6-cyclobutyl-4-(5-(4-fluorophenyl)-1,2,4-oxadiazole-3-carbonyl)-3-isobutylpiperazin-2-one], for which, in data set [1] (MTS assay, 8 days incubation), the CC90 at 8 days was greater than 10 µM. The EC90 in the data set with HCV Replicon 1b was 0.25 µM.

`CC(C)C[C@H]1C(=O)N[C@@H](c2ccccc2)CN1C(=O)c1cc(-c2cccs2)on1` [Compound 110] registered a CC90 at 8 days in data set [1] greater than 10 µM. Further, in the data set with HCV Replicon 1b, the EC90 worked out at 0.59 µM.

Take `CC(C)C[C@H]1C(=O)N[C@@H](c2ccc(C(F)(F)F)cc2)CN1C(=O)c1cc(-c2ccc(F)cc2)on1` [Compound 366, (3S,6S)-4-(5-(4-fluorophenyl)isoxazole-3-carbonyl)-3-isobutyl-6-(4-(trifluoromethyl)-phenyl)piperazin-2-one]: the CC90 at 8 days in data set [1] (MTS assay, 8 days incubation) is greater than 10 µM. Moreover, in the data set with HCV Replicon 1b, the 90% effect concentration (EC90) turned out to be 6 µM.

Turning to `CC(C)C[C@H]1C(=O)N[C@@H](C2CCCC2)CN1C(=O)[C@@H]1C[C@H]1c1ccc(Cl)cc1` [Compound 246, (3S,6S)-4-[(1R,2R)-2-(4-Chloro-phenyl)-cyclopropanecarbonyl]-6-cyclopentyl-3-isobutyl-piperazin-2-one], the CC90 at 8 days in data set [1] was greater than 10 µM. The EC90 in the data set with HCV Replicon 1b came out at 0.2 µM.

On to `CC(C)C[C@H]1CN(C(=O)/C=C/c2cccc(F)c2)[C@@H](CC(C)C)C(=O)N1` [Compound 83], for which, in data set [1], the CC90 at 8 days is greater than 10 µM. Further, the EC90 in the data set on HCV Replicon 1b came to 2.91 µM.

For the compound `CC(C)C[C@H]1CN(C(=O)c2cc(-c3ccc(Cl)s3)on2)[C@@H](CC(C)C)C(=O)N1` [Compound 112], the CC90 at 8 days in data set [1] was greater than 10 µM. The 90% effect concentration (EC90) in the data set on HCV Replicon 1b came to 0.95 µM.

In data set [1] (MTS assay, 8 days incubation), `CC(C)C[C@H]1C(=O)N[C@@H](c2ccc(Cl)cc2)CN1C(=O)[C@@H]1C[C@H]1c1ccccc1` [Compound 360, (3S,6S)-6-(4-chlorophenyl)-3-isobutyl-4-((1R,2R)-2-phenylcyclopropanecarbonyl)-piperazin-2-one] yielded a CC90 at 8 days greater than 10 µM. For the same compound, in the data set on HCV Replicon 1b, the EC90 came out at 3.64 µM.

`CC(C)C[C@H]1C(=O)N[C@@H](C2CCCC2)CN1Cc1cc(-c2ccc(Cl)cc2)on1` [Compound 212, (3S,6S)-4-((5-(4-chlorophenyl)isoxazol-3-yl)methyl)-6-cyclopentyl-3-isobutylpiperazin-2-one] showed a CC90 at 8 days in data set [1] greater than 10 µM. Besides, in the data set with HCV Replicon 1b, the EC90 was determined as 0.26 µM.

In data set [1], `CCC[C@H]1CN(C(=O)/C=C/c2ccc(F)cc2F)[C@@H](CC(C)C)C(=O)N1` [Compound 96] registered a CC90 at 8 days greater than 10 µM. Besides, the EC90 with HCV Replicon 1b amounted to 1.11 µM.

For `COc1cccc(-c2cc(C(=O)N3C[C@H](CC(C)C)NC(=O)[C@@H]3CC(C)C)no2)c1` [Compound 130], the CC90 at 8 days in data set [1] was greater than 10 µM. Moreover, the EC90 in the data set on HCV Replicon 1b was determined as 5.75 µM.

`CC(C)C[C@H]1CN(C(=O)c2cc(-c3ccc(Cl)cc3)on2)[C@@H](CC(C)C)C(=O)N1` [Compound 125] returned a CC90 at 8 days in data set [1] greater than 10 µM. Besides, the EC90 in the data set on HCV Replicon 1b was found to be 0.26 µM.

Compound `CSC[C@H]1CN(Cc2cc(-c3ccc(Cl)cc3)on2)[C@@H](CC(C)C)C(=O)N1` [Compound 218, (3S,6R)-4-((5-(4-chlorophenyl)isoxazol-3-yl)methyl)-3-isobutyl-6-((methylthio)methyl)piperazin-2-one] registered a CC90 at 8 days in data set [1] greater than 10 µM. For the same compound, the EC90 with HCV Replicon 1b was found to be 0.75 µM.

With `CCC[C@H]1CN(C(=O)c2cc(-c3ccc(F)cc3)on2)[C@@H](CC(C)C)C(=O)N1` [Compound 161], the CC90 at 8 days in data set [1] is greater than 10 µM. In the data set on HCV Replicon 1b, the EC90 came to 0.07 µM.

`CC(C)C[C@H]1C(=O)N[C@@H](c2ccccc2F)CN1C(=O)c1noc(-c2ccc(F)c(F)c2)c1F` [Compound 392, (3S,6S)-4-(5-(3,4-difluorophenyl)-4-fluoroisoxazole-3-carbonyl)-6-(2-fluorophenyl)-3-isobutylpiperazin-2-one] yielded a CC90 at 8 days in data set [1] (MTS assay, 8 days incubation) greater than 10 µM. The EC90 in the data set with HCV Replicon 1b was found to be 1.91 µM.

In data set [1], `CC(C)C[C@H]1CN(C(=O)C#Cc2ccc(Cl)cc2)[C@@H](CC(C)C)C(=O)N1` [Compound 120] showed a CC90 at 8 days greater than 10 µM. Moreover, the EC90 in the data set on HCV Replicon 1b amounted to 9.16 µM.

Compound `CC(C)C[C@H]1CN(C(=O)c2cc(-c3ccc(F)cc3)no2)[C@@H](CC(C)C)C(=O)N1` [Compound 144] had a CC90 at 8 days in data set [1] greater than 10 µM. In addition, in the data set on HCV Replicon 1b, the EC90 worked out at 0.33 µM.

For the compound `CC(C)C[C@H]1C(=O)N[C@@H](C(C)C)CN1C(=O)[C@@H]1C[C@H]1c1ccc(F)c(F)c1` [Compound 309, (3S,6S)-4-[(1R,2R)-2-(3,4-Difluoro-phenyl)-cyclopropanecarbonyl]-3-isobutyl-6-isopropyl-piperazin-2-one], the CC90 at 8 days in data set [1] (MTS assay, 8 days incubation) is greater than 10 µM. For the same compound, the 90% effect concentration (EC90) in the data set on HCV Replicon 1b came out at 0.78 µM.

As for `C/C=C/[C@H]1CN(C(=O)[C@@H]2C[C@H]2c2ccc(F)cc2)[C@@H](CC(C)C)C(=O)N1` [Compound 452, (3S,6S)-4-((1R,2R)-2-(4-fluorophenyl)cyclopropanecarbonyl)-3-isobutyl-6-((E)-prop-1-en-1-yl)piperazin-2-one], the CC90 at 8 days in data set [1] (MTS assay, 8 days incubation) is greater than 10 µM. For the same compound, the concentration for an effect of 90% (EC90) in the data set with HCV Replicon 1b came out at 0.048 µM.

Take `Cc1ccccc1[C@H]1CN(C(=O)[C@@H]2C[C@H]2c2ccccc2)[C@@H](CC(C)C)C(=O)N1` [Compound 363, (3S,6S)-3-isobutyl-4-((1R,2R)-2-phenylcyclopropanecarbonyl)-6-(o-tolyl)piperazin-2-one]: the CC90 at 8 days in data set [1] (MTS assay, 8 days incubation) was greater than 10 µM. The 90% effect concentration (EC90) in the data set on HCV Replicon 1b stood at 2.07 µM.

For the compound `CC(C)C[C@H]1C(=O)N[C@@H](c2ccccc2)CN1C(=O)[C@@H]1C[C@H]1c1ccc(F)cc1F` [Compound 327, (3S,6S)-4-[(1R,2R)-2-(2,4-difluoro-phenyl)-cyclopropanecarbonyl]-3-isobutyl-6-phenyl-piperazin-2-one], the CC90 at 8 days in data set [1] (MTS assay, 8 days incubation) was greater than 10 µM. Also, the 90% effect concentration (EC90) in the data set on HCV Replicon 1b came out at 7.21 µM.

Take `Cc1ccc(-c2cc(CN3C[C@H](CC(C)C)NC(=O)[C@@H]3CC(C)C)no2)cc1` [Compound 199]: the CC90 at 8 days in data set [1] is greater than 10 µM. In addition, the EC90 in the data set with HCV Replicon 1b is 2.15 µM.
